Measurements as given in ChEMBL document CHEMBL1151505, “Imino 1,2,3,4-tetrahydrocyclopent[b]indole carbamates as dual inhibitors of acetylcholinesterase and monoamine oxidase” (Bioorg Med Chem Lett, 1996).
Where “and” joins values, the source holds several entries; their conditions need not be identical. Equal entries are not always repeated. Calls of active or inactive are those of the source. No cut-off for these calls is given here.

Key:
[1] = target: T1, Amine oxidase [flavin-containing] B (Homo sapiens, UniProt P27338); assay: Compound was tested for inhibition of monoamine oxidase-B (MAO-B) at 10 mg/kg dose upon peroral administration in 48 hr time interval; assay type: organism-based; set-up: dose 10 mg/kg, route oral; conditions: po
T1 sequence (P27338 whole entry): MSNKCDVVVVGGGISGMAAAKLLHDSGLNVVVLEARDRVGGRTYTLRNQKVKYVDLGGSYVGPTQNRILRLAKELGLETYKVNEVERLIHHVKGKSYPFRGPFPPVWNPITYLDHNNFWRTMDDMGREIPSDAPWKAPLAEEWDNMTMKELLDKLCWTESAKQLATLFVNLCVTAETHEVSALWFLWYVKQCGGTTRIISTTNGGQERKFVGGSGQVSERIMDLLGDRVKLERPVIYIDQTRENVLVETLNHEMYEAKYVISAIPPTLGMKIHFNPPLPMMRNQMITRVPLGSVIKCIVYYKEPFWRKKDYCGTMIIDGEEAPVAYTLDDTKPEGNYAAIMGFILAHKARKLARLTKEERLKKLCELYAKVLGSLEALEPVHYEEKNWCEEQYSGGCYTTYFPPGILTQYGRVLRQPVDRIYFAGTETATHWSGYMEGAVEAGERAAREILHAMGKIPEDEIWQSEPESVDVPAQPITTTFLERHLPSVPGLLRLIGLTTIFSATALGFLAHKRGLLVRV

[2] = target: T2, Amine oxidase [flavin-containing] A (Homo sapiens, UniProt P21397); assay: Compound was tested for inhibition of monoamine oxidase-A (MAO-A).
T2 sequence (P21397 whole entry): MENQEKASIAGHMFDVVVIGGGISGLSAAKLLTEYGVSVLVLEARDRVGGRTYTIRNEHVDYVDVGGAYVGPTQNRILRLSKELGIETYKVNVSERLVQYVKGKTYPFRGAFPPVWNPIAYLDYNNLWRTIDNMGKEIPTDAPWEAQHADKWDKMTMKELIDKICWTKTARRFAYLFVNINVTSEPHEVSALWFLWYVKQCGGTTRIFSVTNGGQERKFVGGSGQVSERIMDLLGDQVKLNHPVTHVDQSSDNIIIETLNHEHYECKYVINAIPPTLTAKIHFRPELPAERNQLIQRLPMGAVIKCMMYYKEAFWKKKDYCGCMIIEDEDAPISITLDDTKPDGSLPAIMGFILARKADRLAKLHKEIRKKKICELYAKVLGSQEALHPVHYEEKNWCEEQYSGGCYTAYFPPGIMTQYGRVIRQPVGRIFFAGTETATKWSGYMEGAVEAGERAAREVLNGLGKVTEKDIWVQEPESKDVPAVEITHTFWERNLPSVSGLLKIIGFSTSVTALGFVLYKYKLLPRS

[3] = target: T1, Amine oxidase [flavin-containing] B; assay: Compound was tested for inhibition of monoamine oxidase-B (MAO-B).
[4] = target: T2, Amine oxidase [flavin-containing] A; assay: Compound was tested for inhibition of monoamine oxidase-A (MAO-A) at 10 mg/kg dose upon peroral administration in 4 hr time interval; assay type: organism-based; set-up: dose 10 mg/kg, route oral; conditions: po
[5] = target: T1, Amine oxidase [flavin-containing] B; assay: Compound was tested for inhibition of monoamine oxidase-B (MAO-B) at 10 mg/kg dose upon peroral administration in 24 hr time interval; assay type: organism-based; set-up: dose 10 mg/kg, route oral; conditions: po
[6] = target: T2, Amine oxidase [flavin-containing] A; assay: Compound was tested for inhibition of monoamine oxidase-A (MAO-A) at 10 mg/kg dose upon peroral administration in 1 hr time interval; assay type: organism-based; set-up: dose 10 mg/kg, route oral; conditions: po
[7] = target: T1, Amine oxidase [flavin-containing] B; assay: Compound was tested for inhibition of monoamine oxidase-B (MAO-B) at 10 mg/kg dose upon peroral administration in 1 hr time interval; assay type: organism-based; set-up: dose 10 mg/kg, route oral; conditions: po
[8] = target: T2, Amine oxidase [flavin-containing] A; assay: Compound was tested for inhibition of monoamine oxidase-A (MAO-A) at 10 mg/kg dose upon peroral administration in 24 hr time interval; assay type: organism-based; set-up: dose 10 mg/kg, route oral; conditions: po
[9] = target: T2, Amine oxidase [flavin-containing] A; assay: Compound was tested for inhibition of monoamine oxidase-A (MAO-A) at 10 mg/kg dose upon peroral administration in 48 hr time interval; assay type: organism-based; set-up: dose 10 mg/kg, route oral; conditions: po
[10] = target: T1, Amine oxidase [flavin-containing] B; assay: Compound was tested for inhibition of monoamine oxidase-B (MAO-B) at 10 mg/kg dose upon peroral administration in 4 hr time interval; assay type: organism-based; set-up: dose 10 mg/kg, route oral; conditions: po
Acetylcholinesterase [11] = target: T3, Acetylcholinesterase (Homo sapiens, UniProt P22303); assay: Inhibition of acetylcholinesterase.
[12] = target: T1, Amine oxidase [flavin-containing] B; assay: Compound was tested for inhibition of monoamine oxidase-B (MAO-B) at 50 mg/kg dose upon peroral administration in 1 hr time interval; assay type: organism-based; set-up: dose 50 mg/kg, route oral; conditions: po
Acetylcholinesterase [13] = target: T3, Acetylcholinesterase; assay: Compound was tested for inhibition of acetylcholinesterase at […] dose upon peroral administration in 0.5 hr time interval
[14] = target: T2, Amine oxidase [flavin-containing] A; assay: Compound was tested for inhibition of monoamine oxidase-A (MAO-A) at 50 mg/kg dose upon peroral administration in 0.5 hr time interval; assay type: organism-based; set-up: dose 50 mg/kg, route oral; conditions: po
[15] = target: T2, Amine oxidase [flavin-containing] A; assay: Compound was tested for inhibition of monoamine oxidase-A (MAO-A) at 50 mg/kg dose upon peroral administration in 48 time interval; assay type: organism-based; set-up: dose 50 mg/kg, route oral; conditions: po
Acetylcholinesterase [16] = target: T3, Acetylcholinesterase; assay: Compound was tested for inhibition of acetylcholinesterase at 50 mg/kg dose upon peroral administration in 24 hr time interval; assay type: organism-based; set-up: dose 50 mg/kg
[17] = target: T2, Amine oxidase [flavin-containing] A; assay: Compound was tested for inhibition of monoamine oxidase-A (MAO-A) at 50 mg/kg dose upon peroral administration in 4 hr time interval; assay type: organism-based; set-up: dose 50 mg/kg, route oral; conditions: po
[18] = target: T1, Amine oxidase [flavin-containing] B; assay: Compound was tested for inhibition of monoamine oxidase-B (MAO-B) at 50 mg/kg dose upon peroral administration in 48 time interval; assay type: organism-based; set-up: dose 50 mg/kg, route oral; conditions: po
[19] = target: T2, Amine oxidase [flavin-containing] A; assay: Compound was tested for inhibition of monoamine oxidase-A (MAO-A) at 50 mg/kg dose upon peroral administration in 24 hr time interval; assay type: organism-based; set-up: dose 50 mg/kg, route oral; conditions: po
[20] = target: T1, Amine oxidase [flavin-containing] B; assay: Compound was tested for inhibition of monoamine oxidase-B (MAO-B) at 50 mg/kg dose upon peroral administration in 4 hr time interval; assay type: organism-based; set-up: dose 50 mg/kg, route oral; conditions: po
Acetylcholinesterase [21] = target: T3, Acetylcholinesterase; assay: Compound was tested for inhibition of acetylcholinesterase at 50 mg/kg dose upon peroral administration in 1 hr time interval; assay type: organism-based; set-up: dose 50 mg/kg
Acetylcholinesterase [22] = target: T3, Acetylcholinesterase; assay: Compound was tested for inhibition of acetylcholinesterase at 50 mg/kg dose upon peroral administration in 4 hr time interval; assay type: organism-based; set-up: dose 50 mg/kg
[23] = target: T2, Amine oxidase [flavin-containing] A; assay: Compound was tested for inhibition of monoamine oxidase-A (MAO-A) at 50 mg/kg dose upon peroral administration in 1 hr time interval; assay type: organism-based; set-up: dose 50 mg/kg, route oral; conditions: po
[24] = target: T1, Amine oxidase [flavin-containing] B; assay: Compound was tested for inhibition of monoamine oxidase-B (MAO-B) at 50 mg/kg dose upon peroral administration in 24 hr time interval; assay type: organism-based; set-up: dose 50 mg/kg, route oral; conditions: po
[25] = target: T1, Amine oxidase [flavin-containing] B; assay: Compound was tested for inhibition of monoamine oxidase-B (MAO-B) at 50 mg/kg dose upon peroral administration in 0.5 hr time interval; assay type: organism-based; set-up: dose 50 mg/kg, route oral; conditions: po
Acetylcholinesterase [26] = target: T3, Acetylcholinesterase; conditions: 50 mg/kg
[27] = target: T2, Amine oxidase [flavin-containing] A; assay: Compound was tested for inhibition of monoamine oxidase-A (MAO-A) at 50 mg/kg dose upon peroral administration in 48 hr time interval; assay type: organism-based; set-up: dose 50 mg/kg, route oral; conditions: po
[28] = target: T1, Amine oxidase [flavin-containing] B; assay: Compound was tested for inhibition of monoamine oxidase-B (MAO-B) at 50 mg/kg dose upon peroral administration in 48 hr time interval; assay type: organism-based; set-up: dose 50 mg/kg, route oral; conditions: in vivo, po
Acetylcholinesterase [29] = target: T3, Acetylcholinesterase; conditions: 50 mg/kg; remark: listed apart in the source
Acetylcholinesterase [30] = target: T3, Acetylcholinesterase; conditions: 50 mg/kg; remark: listed apart in the source
Acetylcholinesterase [31] = target: T3, Acetylcholinesterase; conditions: 10 mg/kg
Description: Compound was tested for inhibition of acetylcholinesterase at 10 mg/kg dose upon peroral administration in 24 hr time interval

Acetylcholinesterase [32] = target: T3, Acetylcholinesterase; conditions: 10 mg/kg; remark: listed apart in the source
Description: Compound was tested for inhibition of acetylcholinesterase at 10 mg/kg dose upon peroral administration in 4 hr time interval

Acetylcholinesterase [33] = target: T3, Acetylcholinesterase; conditions: 10 mg/kg; remark: listed apart in the source
Description: Compound was tested for inhibition of acetylcholinesterase at 10 mg/kg dose upon peroral administration in 0.5 hr time interval

Acetylcholinesterase [34] = target: T3, Acetylcholinesterase; conditions: 10 mg/kg; remark: listed apart in the source
Description: Compound was tested for inhibition of acetylcholinesterase at 10 mg/kg dose upon peroral administration in 1 hr time interval

T3 sequence (P22303 whole entry): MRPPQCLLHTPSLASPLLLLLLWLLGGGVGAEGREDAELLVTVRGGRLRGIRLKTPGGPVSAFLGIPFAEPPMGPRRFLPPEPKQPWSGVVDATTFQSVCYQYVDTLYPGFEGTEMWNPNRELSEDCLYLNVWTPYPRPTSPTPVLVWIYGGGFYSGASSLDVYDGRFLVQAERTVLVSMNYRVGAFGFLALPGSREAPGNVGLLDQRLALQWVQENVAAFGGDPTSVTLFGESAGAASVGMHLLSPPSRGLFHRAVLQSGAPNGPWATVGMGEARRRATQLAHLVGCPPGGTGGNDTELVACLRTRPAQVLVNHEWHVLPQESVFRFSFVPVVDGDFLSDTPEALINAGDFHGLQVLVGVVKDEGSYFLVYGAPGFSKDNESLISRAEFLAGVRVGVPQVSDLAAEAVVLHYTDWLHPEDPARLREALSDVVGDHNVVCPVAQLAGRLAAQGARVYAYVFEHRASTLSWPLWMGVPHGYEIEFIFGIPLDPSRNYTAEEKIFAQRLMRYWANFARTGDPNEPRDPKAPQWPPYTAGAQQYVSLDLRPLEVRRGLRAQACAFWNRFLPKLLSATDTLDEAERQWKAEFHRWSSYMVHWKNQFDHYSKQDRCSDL

Compound	IC50 [2]	IC50 [3]	IC50 (Acetylcholinesterase [11])	other results
COc1cc(Br)c2oc(C3CCNCC3)cc2c1 [BROFAROMINE]	0.18 µM	23.4 µM	–	inhibition at 10 mg/kg [1]: 18.3%; inhibition at 10 mg/kg [4]: 64.2%; inhibition at 10 mg/kg [5]: 22.2%; inhibition at 10 mg/kg [6]: 52.1%; inhibition at 10 mg/kg [7]: 29.6%; inhibition at 10 mg/kg [8]: 28.7%; inhibition at 10 mg/kg [9]: 13.2%; inhibition at 10 mg/kg [10]: 42.6%
C/N=C1/CCc2c1n(C)c1ccccc21	0.92 µM	317 µM	–	–
CC/N=C1/CCc2c1n(C)c1ccc(OC(=O)NC)cc21	3.74 µM	> 1000 µM	5.68 µM	–
CC/N=C1/CCc2c1n(C)c1ccc(OC(=O)NC)c(Br)c21	0.21 µM	> 1000 µM	0.14 µM	inhibition at 50 mg/kg [12]: 17.2%; inhibition (Acetylcholinesterase [13]): 15.1%; inhibition at 50 mg/kg [14]: 28.2%; inhibition at 50 mg/kg [15]: 11.7%; inhibition (Acetylcholinesterase [16]): 0.2%; inhibition at 50 mg/kg [17]: 48.9%; inhibition at 50 mg/kg [18]: 9.3%; inhibition at 50 mg/kg [19]: 13.1%; inhibition at 50 mg/kg [20]: 25.9%; inhibition (Acetylcholinesterase [21]): 19.4%; inhibition (Acetylcholinesterase [22]): 30.9%; inhibition at 50 mg/kg [23]: 33.3%; inhibition at 50 mg/kg [24]: 17.8%; inhibition at 50 mg/kg [25]: 21.5%
C/N=C1/CCc2c1n(C)c1cc(Cl)c(OC(=O)NC)cc21	22.5 µM	395 µM	0.67 µM	–
C/N=C1/CCc2c1n(C)c1ccc(OC(=O)N(C)C)c(Br)c21	0.54 µM	51 µM	0.06 µM	inhibition (Acetylcholinesterase [26]): inactive; inhibition at 50 mg/kg [27]: 22.3%; inhibition at 50 mg/kg [17]: 58.8%; Inhibition [28]: 10.1% and 20.4%; inhibition at 50 mg/kg [19]: 23.2%; inhibition at 50 mg/kg [20]: 25.9%; inhibition (Acetylcholinesterase [29]): inactive; inhibition at 50 mg/kg [23]: 44%; inhibition at 50 mg/kg [24]: 6.6%; inhibition (Acetylcholinesterase [30]): inactive
C/N=C1/CCc2c1n(C)c1ccc(OC(=O)NC)c(Br)c21	0.65 µM	> 1000 µM	0.18 µM	–
CNC(=O)Oc1ccc2c(c1)c1c(n2C)/C(=N\CCc2ccccc2)CC1	> 1000 µM	> 1000 µM	0.16 µM	–
C/N=C1/CCc2c1n(C)c1ccc(OC(=O)NC)c(Cl)c21	1.36 µM	> 1000 µM	0.23 µM	–
CC/N=C1/CCc2c1n(C)c1ccccc21	2.12 µM	77.6 µM	–	–
CC(C)/N=C1/CCc2c1n(C)c1ccccc21	30.8 µM	> 1000 µM	–	–
C/N=C1/CCc2c1n(C)c1ccc(OC(=O)NC)cc21	13.6 µM	> 1000 µM	3.36 µM	–
C/N=C1/CCc2c1n(C)c1ccc(OC(=O)NCc3ccccc3)c(Br)c21	5.47 µM	> 1000 µM	4.19 µM	–
CCCn1c2c(c3c(Br)c(OC(=O)NC)ccc31)CC/C2=N/CC	> 1000 µM	> 1000 µM	0.23 µM	–
CCC/N=C1/CCc2c1n(C)c1ccc(OC(=O)NC)cc21	25.4 µM	> 1000 µM	3.84 µM	–
Cn1c2c(c3ccccc31)CC/C2=N/Cc1ccncc1	113 µM	> 1000 µM	–	–
CCC/N=C1/CCc2c1n(C)c1ccccc21	1.61 µM	> 1000 µM	–	–
CCCCCCCNC(=O)Oc1ccc2c(c1)[C@]1(C)CCN(C)[C@@H]1N2C [EPTASTIGMINE]	–	–	0.009 µM	inhibition (Acetylcholinesterase [31]): 20.8%; inhibition (Acetylcholinesterase [32]): 72.9%; inhibition (Acetylcholinesterase [33]): 33.2%; inhibition (Acetylcholinesterase [34]): 52.3%
CC/N=C1/CCc2c1n(C)c1ccc(OC(=O)NC)c(Cl)c21	0.1 µM	> 1000 µM	0.16 µM	–
CCCCNC(=O)Oc1ccc2c(c1Br)c1c(n2C)/C(=N\C)CC1	0.75 µM	175 µM	3.17 µM	–
